How the values were obtained:
leukemia NB4 cells = experiment: Cell death induction in NB4 cells (FACS, pre-G1); format: cell-based, human; conditions: for % Cell death NB4 cells: 3 μM, 30 h; for effect on cell death, single inhibitor: C646 5 µM, GSK126 10 µM, used separately
[1] = system: neuroblastoma SHSY5Y cells; experiment: Cell death induction in SHSY5Y cells; format: cell-based; conditions: 3 μM, 48 h
Description: When tested in neuroblastoma SHSY5Y cells at tetrahydro-4H -pyran-4-one MC2912 failed in inducing
3 μM for 48 h, MC2884 and its analogues furnished cell death in SHSY5Y cells, whereas its thio-analogue
(Supplementary SAR Table 1). In general, the SHSY5Y similarly to what observed in NB4 cells.
than NB4 cells. Anyway, also in this cell line the death in both cell lines such as MC2910, 2912, 2909,
(MC2909), and bis 3,5-dibromophenyl (MC2910) were acetylation and EZH2 deregulation (SAR Figure 2). In […]
3-phenyl-1-propan-1-one chain at N1 (MC3187), which 3).

GCN5 = GCN5 (Homo sapiens, UniProt Q92830); experiment: HAT in vitro assay, 10-dose IC50, GCN5; format: biochemical; conditions: substrate Histone H3, 3 μM Acetyl-CoA; read-out: Compound IC50 GCN5
Sequence of GCN5 (Q92830 whole entry): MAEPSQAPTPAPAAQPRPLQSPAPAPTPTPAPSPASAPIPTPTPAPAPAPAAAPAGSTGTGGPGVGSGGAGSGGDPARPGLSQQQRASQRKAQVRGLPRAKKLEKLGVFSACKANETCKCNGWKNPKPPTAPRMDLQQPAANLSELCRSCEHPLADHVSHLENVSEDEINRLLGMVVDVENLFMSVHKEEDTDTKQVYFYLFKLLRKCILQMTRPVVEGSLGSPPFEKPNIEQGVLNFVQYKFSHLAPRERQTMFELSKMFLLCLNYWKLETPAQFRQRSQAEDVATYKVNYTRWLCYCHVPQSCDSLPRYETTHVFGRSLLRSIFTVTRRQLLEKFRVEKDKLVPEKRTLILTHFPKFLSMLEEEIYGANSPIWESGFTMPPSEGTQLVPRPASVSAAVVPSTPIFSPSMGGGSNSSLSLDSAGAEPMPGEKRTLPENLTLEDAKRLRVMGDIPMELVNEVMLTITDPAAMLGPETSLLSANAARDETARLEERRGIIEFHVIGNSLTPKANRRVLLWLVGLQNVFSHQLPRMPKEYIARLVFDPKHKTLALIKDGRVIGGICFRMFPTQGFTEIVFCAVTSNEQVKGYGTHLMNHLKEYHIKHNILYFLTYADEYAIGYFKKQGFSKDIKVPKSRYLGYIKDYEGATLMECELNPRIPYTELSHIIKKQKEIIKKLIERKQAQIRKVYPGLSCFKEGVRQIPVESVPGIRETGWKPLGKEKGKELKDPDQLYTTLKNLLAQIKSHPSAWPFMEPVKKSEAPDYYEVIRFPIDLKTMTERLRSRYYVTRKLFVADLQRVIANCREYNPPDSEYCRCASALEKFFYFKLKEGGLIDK
Description: (§1) For HAT in vitro assay, MC2884 activity was also tested in vitro and IC50 was calculated as indicated in the scheme. […] Reactions were carried out at 3 μM Acetyl-CoA. Empty cells indicate no inhibition or compound activity that could not be fit to an IC50 curve.

pCAF = pCAF (Homo sapiens, UniProt Q92831); experiment: HAT in vitro assay, 10-dose IC50, pCAF; format: biochemical; conditions: substrate Histone H3, 3 μM Acetyl-CoA; read-out: Compound IC50 pCAF
Sequence of pCAF (Q92831 whole entry): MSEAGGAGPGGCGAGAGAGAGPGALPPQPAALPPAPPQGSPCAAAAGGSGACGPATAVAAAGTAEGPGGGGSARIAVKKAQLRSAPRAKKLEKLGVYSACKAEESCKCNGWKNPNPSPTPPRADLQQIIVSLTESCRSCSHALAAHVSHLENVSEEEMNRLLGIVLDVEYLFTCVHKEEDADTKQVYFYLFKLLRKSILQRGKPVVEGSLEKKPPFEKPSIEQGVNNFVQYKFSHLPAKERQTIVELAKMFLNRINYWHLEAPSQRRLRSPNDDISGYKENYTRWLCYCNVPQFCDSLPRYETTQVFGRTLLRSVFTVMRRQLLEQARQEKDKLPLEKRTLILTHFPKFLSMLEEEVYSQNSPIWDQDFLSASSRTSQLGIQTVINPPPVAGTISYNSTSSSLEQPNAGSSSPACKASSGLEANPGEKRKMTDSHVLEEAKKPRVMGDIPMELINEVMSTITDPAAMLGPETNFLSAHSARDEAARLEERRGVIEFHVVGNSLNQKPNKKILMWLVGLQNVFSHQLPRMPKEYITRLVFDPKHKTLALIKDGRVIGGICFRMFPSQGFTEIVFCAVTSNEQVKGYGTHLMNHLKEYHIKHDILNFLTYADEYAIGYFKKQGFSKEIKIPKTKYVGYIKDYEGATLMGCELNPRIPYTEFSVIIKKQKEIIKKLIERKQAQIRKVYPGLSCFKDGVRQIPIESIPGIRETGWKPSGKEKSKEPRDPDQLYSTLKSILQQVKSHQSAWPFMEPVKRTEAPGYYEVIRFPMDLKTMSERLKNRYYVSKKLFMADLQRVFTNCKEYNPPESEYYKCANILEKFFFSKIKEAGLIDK
Description: as §1

CBP = CBP (Homo sapiens, UniProt Q92793); experiment: HAT in vitro assay, 10-dose IC50, CBP; format: biochemical; conditions: substrate Histone H3, 3 μM Acetyl-CoA; read-out: Compound IC50 CBP
Sequence of CBP (Q92793 whole entry): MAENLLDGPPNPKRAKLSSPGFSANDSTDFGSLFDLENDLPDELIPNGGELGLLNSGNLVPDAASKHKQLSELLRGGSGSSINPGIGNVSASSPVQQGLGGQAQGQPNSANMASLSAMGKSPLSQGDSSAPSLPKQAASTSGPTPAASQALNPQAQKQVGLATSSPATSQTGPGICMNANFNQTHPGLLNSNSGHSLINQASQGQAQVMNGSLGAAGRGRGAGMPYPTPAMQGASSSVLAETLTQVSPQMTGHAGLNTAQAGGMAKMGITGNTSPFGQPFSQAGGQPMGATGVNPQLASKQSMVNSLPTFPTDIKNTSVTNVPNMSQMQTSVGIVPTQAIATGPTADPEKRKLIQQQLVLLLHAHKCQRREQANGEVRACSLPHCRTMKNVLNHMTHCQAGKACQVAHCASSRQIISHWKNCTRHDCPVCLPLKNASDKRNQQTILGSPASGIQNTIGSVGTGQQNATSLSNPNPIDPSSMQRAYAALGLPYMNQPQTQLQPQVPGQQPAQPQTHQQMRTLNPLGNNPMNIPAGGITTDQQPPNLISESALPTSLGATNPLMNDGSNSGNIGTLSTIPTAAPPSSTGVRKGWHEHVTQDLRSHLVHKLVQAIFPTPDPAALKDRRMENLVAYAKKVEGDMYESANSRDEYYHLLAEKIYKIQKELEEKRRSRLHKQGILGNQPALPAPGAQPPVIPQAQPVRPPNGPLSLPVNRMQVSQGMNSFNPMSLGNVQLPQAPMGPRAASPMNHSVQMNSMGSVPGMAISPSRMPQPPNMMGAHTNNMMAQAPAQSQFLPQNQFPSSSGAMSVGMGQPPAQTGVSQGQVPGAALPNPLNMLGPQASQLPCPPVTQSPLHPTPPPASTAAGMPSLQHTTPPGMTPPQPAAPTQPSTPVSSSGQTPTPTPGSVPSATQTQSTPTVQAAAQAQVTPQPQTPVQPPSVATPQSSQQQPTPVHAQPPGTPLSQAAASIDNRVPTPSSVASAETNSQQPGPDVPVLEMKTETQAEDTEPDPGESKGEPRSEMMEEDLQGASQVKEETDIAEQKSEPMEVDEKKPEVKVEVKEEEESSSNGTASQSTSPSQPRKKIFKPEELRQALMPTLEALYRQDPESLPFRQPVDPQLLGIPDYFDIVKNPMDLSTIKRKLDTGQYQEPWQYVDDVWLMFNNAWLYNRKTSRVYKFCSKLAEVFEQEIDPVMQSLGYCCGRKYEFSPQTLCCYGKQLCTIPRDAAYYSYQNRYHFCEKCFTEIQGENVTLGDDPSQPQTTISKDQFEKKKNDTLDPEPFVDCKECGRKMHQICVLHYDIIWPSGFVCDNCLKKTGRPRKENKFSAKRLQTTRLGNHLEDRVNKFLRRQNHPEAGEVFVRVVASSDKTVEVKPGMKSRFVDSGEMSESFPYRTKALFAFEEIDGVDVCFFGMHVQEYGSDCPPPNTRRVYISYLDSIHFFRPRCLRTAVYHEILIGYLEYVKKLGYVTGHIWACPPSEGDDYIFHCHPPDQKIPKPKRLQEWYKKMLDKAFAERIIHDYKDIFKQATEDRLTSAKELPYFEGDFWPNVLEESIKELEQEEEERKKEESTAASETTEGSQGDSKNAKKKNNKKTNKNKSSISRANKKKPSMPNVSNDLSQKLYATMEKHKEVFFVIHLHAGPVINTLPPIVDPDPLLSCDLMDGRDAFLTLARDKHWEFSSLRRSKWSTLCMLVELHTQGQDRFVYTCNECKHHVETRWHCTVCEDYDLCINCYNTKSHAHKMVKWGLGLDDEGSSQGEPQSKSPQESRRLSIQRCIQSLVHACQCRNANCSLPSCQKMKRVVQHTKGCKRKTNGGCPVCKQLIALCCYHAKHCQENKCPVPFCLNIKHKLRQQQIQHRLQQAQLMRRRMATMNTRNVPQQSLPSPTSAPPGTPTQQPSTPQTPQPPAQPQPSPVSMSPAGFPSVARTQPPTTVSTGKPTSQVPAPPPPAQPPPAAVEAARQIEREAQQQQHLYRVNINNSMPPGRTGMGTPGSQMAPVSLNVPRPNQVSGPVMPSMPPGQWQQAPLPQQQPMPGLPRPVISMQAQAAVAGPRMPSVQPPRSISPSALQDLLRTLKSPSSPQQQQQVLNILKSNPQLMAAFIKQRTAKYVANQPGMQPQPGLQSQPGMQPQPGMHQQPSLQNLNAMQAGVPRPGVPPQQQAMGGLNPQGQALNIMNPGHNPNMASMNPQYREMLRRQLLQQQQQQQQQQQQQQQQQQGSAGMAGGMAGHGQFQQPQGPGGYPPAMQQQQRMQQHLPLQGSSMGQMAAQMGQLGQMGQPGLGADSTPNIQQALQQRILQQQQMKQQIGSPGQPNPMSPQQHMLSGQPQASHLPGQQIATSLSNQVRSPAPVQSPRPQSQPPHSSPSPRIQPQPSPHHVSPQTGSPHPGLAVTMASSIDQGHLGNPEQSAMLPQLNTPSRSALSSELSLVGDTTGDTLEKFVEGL
Description: as §1

KAT5 = KAT5 (Homo sapiens, UniProt Q92993); experiment: HAT in vitro assay, 10-dose IC50, KAT5; format: biochemical; conditions: substrate Histone H2A, 3 μM Acetyl-CoA; read-out: Compound IC50 KAT5
Sequence of KAT5 (Q92993 whole entry): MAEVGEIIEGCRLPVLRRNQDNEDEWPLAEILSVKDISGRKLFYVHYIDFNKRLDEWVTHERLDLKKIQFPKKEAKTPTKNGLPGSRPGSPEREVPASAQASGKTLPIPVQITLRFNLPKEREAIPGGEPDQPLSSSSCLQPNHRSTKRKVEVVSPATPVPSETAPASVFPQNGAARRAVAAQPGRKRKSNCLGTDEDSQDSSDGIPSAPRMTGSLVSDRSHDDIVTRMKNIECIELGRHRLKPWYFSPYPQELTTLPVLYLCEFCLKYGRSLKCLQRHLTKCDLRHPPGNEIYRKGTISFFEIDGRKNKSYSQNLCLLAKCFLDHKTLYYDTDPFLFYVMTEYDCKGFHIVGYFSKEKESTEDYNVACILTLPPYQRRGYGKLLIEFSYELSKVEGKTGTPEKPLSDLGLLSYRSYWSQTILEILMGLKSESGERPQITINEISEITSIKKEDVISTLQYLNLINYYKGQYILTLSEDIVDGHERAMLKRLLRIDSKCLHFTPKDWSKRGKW
Description: as §1

O=C1C(=Cc2ccc(Br)cc2)CN(Cc2ccccc2)CC1=Cc1ccc(Br)cc1 [MC2909]
% Cell death NB4 cells (leukemia NB4 cells): 8.8% | % Cell death SHSY5Y cells [1]: 4.7%

O=C1C(=Cc2cccc(Br)c2)CN(CC(=O)c2ccccc2)CC1=Cc1cccc(Br)c1 [MC3207]
% Cell death NB4 cells (leukemia NB4 cells): 38% | % Cell death SHSY5Y cells [1]: 7.0%

O=C1C(=Cc2cccc(Br)c2)CSCC1=Cc1cccc(Br)c1 [MC2913]
% Cell death NB4 cells (leukemia NB4 cells): 52.7% | % Cell death SHSY5Y cells [1]: 23.9%

CN1CC(=Cc2cccc(Br)c2)C(=O)C(=Cc2cccc(Br)c2)C1 [MC2914]
% Cell death NB4 cells (leukemia NB4 cells): 36% | % Cell death SHSY5Y cells [1]: 9.0%

O=C(/C=C/c1ccc(Br)cc1)/C=C/c1ccc(Br)cc1 [MC2886]
% Cell death NB4 cells (leukemia NB4 cells): 0,56% | % Cell death SHSY5Y cells [1]: 1,2%

CCCCCCCCCCCCCCCc1cccc(O)c1C(=O)O [Anacardic Acid]
IC50 (GCN5): 38.6 µM | IC50 (pCAF): 38.8 µM

CN(C)CC[C@H](CSc1ccccc1)Nc1ccc(S(=O)(=O)NC(=O)c2ccc(N3CCN(Cc4ccccc4-c4ccc(Cl)cc4)CC3)cc2)cc1[N+](=O)[O-] [ABT-737, reference compound]
cell death, ABT-737 with addition of MC2884 (leukemia NB4 cells; NB4 cells, ABT-737 1 µM plus MC2884 at concentrations that alone induced little apoptosis): up to 60%

O=C1C(=Cc2cccc(Br)c2)CN(CCc2ccccc2)CC1=Cc1cccc(Br)c1 [MC3269]
% Cell death NB4 cells (leukemia NB4 cells): 62.5% | % Cell death SHSY5Y cells [1]: 19.2%

O=C1/C(=C/c2cccc(Br)c2)CCC/C1=C\c1cccc(Br)c1 [MC2911]
% Cell death NB4 cells (leukemia NB4 cells): 0,76% | % Cell death SHSY5Y cells [1]: 0,8%

O=C1/C(=C/c2ccc(O)cc2Br)CN(Cc2ccccc2)C/C1=C\c1ccc(O)cc1Br [MC3395]
% Cell death NB4 cells (leukemia NB4 cells): 0,53% | % Cell death SHSY5Y cells [1]: 1,0%

CC[C@H](C)n1cc(C)c2c(C(=O)NCc3c(C)cc(C)[nH]c3=O)cc(-c3ccc(N4CCNCC4)nc3)cc21 [GSK126, reference compound]
effect on cell death, single inhibitor (leukemia NB4 cells; NB4 cells): no effects

O=C1C(=Cc2ccccc2Br)CN(Cc2ccccc2)CC1=Cc1ccccc1Br [MC2908]
% Cell death NB4 cells (leukemia NB4 cells): 30.3% | % Cell death SHSY5Y cells [1]: 9.2%

CC1=NN(c2ccc(C(=O)O)cc2)C(=O)/C1=C\c1ccc(-c2cc(C)c(C)cc2[N+](=O)[O-])o1 [C646, reference compound]
IC50 (CBP): 0.0787 µM | IC50 (KAT5): 20.4 µM | effect on cell death, single inhibitor (leukemia NB4 cells; NB4 cells): no effects

O=C1C(=Cc2cccc(Br)c2)CN(C(=O)CCc2ccccc2)CC1=Cc1cccc(Br)c1 [MC3187]
% Cell death NB4 cells (leukemia NB4 cells): 28.9% | % Cell death SHSY5Y cells [1]: 19.9%

O=C1C(=Cc2cccc(Br)c2)CN(C(=O)c2ccccc2)CC1=Cc1cccc(Br)c1 [MC3146]
% Cell death NB4 cells (leukemia NB4 cells): 13.2% | % Cell death SHSY5Y cells [1]: 5.6%
